Marks after values point to notes of the source that are not given here.
Test system: cancer-related neuropathic pain
Test: Open label dose escalation study of flupirtine, case studies JE and RM
Settings: flupirtine 100 mg qid; for SCORE RELATIONSHIPS / SCORE MOOD / SCORE ENJOYMENT / SCORE SLEEP / SCORE WALKING / SCORE GENERAL ACTIVITY / SCORE TOTAL ACTIVITY: pain interference 1-10; for SCORE RELATIONSHIPS / SCORE NAUSEA / WHO PERFORMANCE STATUS: day 1 baseline 3; for SCORE MOOD / SCORE POOR APPETITE / SCORE UN[…] GAIT / PAIN SCORE RIGHT NOW: day 1 baseline 4; for SCORE ENJOYMENT / SCORE SLEEP: day 1 baseline 6; for SCORE WALKING: day 1 baseline 7; for SCORE GENERAL ACTIVITY / SCORE TOTAL ACTIVITY / AVERAGE PAIN LAST 24 HOURS: day 1 baseline 8; for SCORE CONSTIPATION / SCORE INDIGESTION / SCORE POOR CONCENTRATION / SCORE DROWSINESS / SCORE NAUSEA / SCORE POOR APPETITE / SCORE UN[…] GAIT: scale 1-4; for SCORE CONSTIPATION / SCORE INDIGESTION / SCORE POOR CONCENTRATION: day 1 baseline 1; for SCORE DROWSINESS: day 1 baseline 2; for LEAST PAIN LAST 24 HRS / PAIN SCORE RIGHT NOW / AVERAGE PAIN LAST 24 HOURS / WORST PAIN SCORE LAST 24 HOURS: scale to 10; for LEAST PAIN LAST 24 HRS / electric pain score / freezing pain score / numbness score / score for increased pain due to touch / score for increased pain due to weather changes / squeezing pain score: day 1 baseline 0; for WORST PAIN SCORE LAST 24 HOURS / PERCENTAGE PAIN RELIEF LAST 24 HOURS: day 1 baseline 10; for WHO PERFORMANCE STATUS: 0=fully active, 4=completely disabled; for neuropathic discriminant function score: >0 = neuropathic, day 1 baseline 0.262; for score for overly sensitive to touch / tingling pain score: day 1 baseline 20; for burning pain score / overwhelming pain score: day 1 baseline 90; for for shooting pain score / unpleasant pain score: day 1 baseline 100

## CCOC(=O)Nc1ccc(NCc2ccc(F)cc2)nc1N [flupirtine]
RM day 5
  SCORE RELATIONSHIPS: 3
  SCORE MOOD: 3
  SCORE ENJOYMENT: 6
  SCORE SLEEP: 6
  SCORE WALKING: 5
  SCORE GENERAL ACTIVITY: 6
  SCORE TOTAL ACTIVITY: 6
  SCORE CONSTIPATION: 2
  SCORE INDIGESTION: 1
  SCORE POOR CONCENTRATION: 2
  SCORE DROWSINESS: 1
  SCORE NAUSEA: 1
  SCORE POOR APPETITE: 2
  SCORE UN[…] GAIT: 4
  LEAST PAIN LAST 24 HRS: 2
  PAIN SCORE RIGHT NOW: 5
  AVERAGE PAIN LAST 24 HOURS: 8
  WORST PAIN SCORE LAST 24 HOURS: 9
RM day 6
  WHO PERFORMANCE STATUS: 3
  neuropathic discriminant function score: −1.168
  electric pain score: 0
  freezing pain score: 0
  numbness score: 0
  score for increased pain due to touch: 0
  score for increased pain due to weather changes: 0
  squeezing pain score: 0
  PERCENTAGE PAIN RELIEF LAST 24 HOURS: 50%
  score for overly sensitive to touch: 0
  tingling pain score: 0
  burning pain score: 0
  overwhelming pain score: 40
  for shooting pain score: 0
  unpleasant pain score: 60
  SCORE RELATIONSHIPS: 3
  SCORE MOOD: 4
  SCORE ENJOYMENT: 6
  SCORE SLEEP: 4
  SCORE WALKING: 6
  SCORE GENERAL ACTIVITY: 6
  SCORE TOTAL ACTIVITY: 6
  SCORE CONSTIPATION: 2
  SCORE INDIGESTION: 1
  SCORE POOR CONCENTRATION: 2
  SCORE DROWSINESS: 1
  SCORE NAUSEA: 2
  SCORE POOR APPETITE: 2
  SCORE UN[…] GAIT: 4
  LEAST PAIN LAST 24 HRS: 2
  PAIN SCORE RIGHT NOW: 6
  AVERAGE PAIN LAST 24 HOURS: 4
  WORST PAIN SCORE LAST 24 HOURS: 7
RM day 7
  WHO PERFORMANCE STATUS: 3
  neuropathic discriminant function score: −1.168
  electric pain score: 0
  freezing pain score: 0
  numbness score: 0
  score for increased pain due to touch: 0
  score for increased pain due to weather changes: 0
  squeezing pain score: 0
  PERCENTAGE PAIN RELIEF LAST 24 HOURS: 75%
  score for overly sensitive to touch: 0
  tingling pain score: 0
  burning pain score: 0
  overwhelming pain score: 20
  for shooting pain score: 0
  unpleasant pain score: 50
  SCORE RELATIONSHIPS: 3
  SCORE MOOD: 6
  SCORE ENJOYMENT: 6
  SCORE SLEEP: 6
  SCORE WALKING: 6
  SCORE GENERAL ACTIVITY: 5
  SCORE TOTAL ACTIVITY: 5
  SCORE CONSTIPATION: 2
  SCORE INDIGESTION: 1
  SCORE POOR CONCENTRATION: 2
  SCORE DROWSINESS: 1
  SCORE NAUSEA: 2
  SCORE POOR APPETITE: 3
  SCORE UN[…] GAIT: 4
  LEAST PAIN LAST 24 HRS: 0
  PAIN SCORE RIGHT NOW: 5
  AVERAGE PAIN LAST 24 HOURS: 3
  WORST PAIN SCORE LAST 24 HOURS: 5
RM day 8
  WHO PERFORMANCE STATUS: 3
  electric pain score: 0
  freezing pain score: 0
  numbness score: 0
  score for increased pain due to touch: 0
  score for increased pain due to weather changes: 0
  squeezing pain score: 0
  PERCENTAGE PAIN RELIEF LAST 24 HOURS: 75* %
  score for overly sensitive to touch: 0*
  tingling pain score: 0*
  burning pain score: 0*
  overwhelming pain score: 20*
  for shooting pain score: 0*
  unpleasant pain score: 45*
  SCORE RELATIONSHIPS: 3
  SCORE MOOD: 4*
  SCORE ENJOYMENT: 4*
  SCORE SLEEP: 1*
  SCORE WALKING: 6*
  SCORE GENERAL ACTIVITY: 5*
  SCORE TOTAL ACTIVITY: 5*
  SCORE CONSTIPATION: 3
  SCORE INDIGESTION: 1
  SCORE POOR CONCENTRATION: 2
  SCORE DROWSINESS: 1*
  SCORE NAUSEA: 3
  SCORE UN[…] GAIT: 4
  LEAST PAIN LAST 24 HRS: 1
  PAIN SCORE RIGHT NOW: 7
